# Test results taken from US6420174B1, “Method of producing organogenetic tissue from a plant of the genus Mentha” (Council of Scientific and Industrial Research, priority 2000, dated 2002).
# Experiments:
# [1] = tested on: regenerated shoots of Mentha arvensis; assay: Response of regenerated shoots in different media; type: cell-based; conditions: Mentha arvensis L. cv. Himalaya, 7 days
# Text: (§1) The plant variety used in these experiments was cv. Himalaya (U.S. Pat No. PP10935) of Mentha arvensis L. (2n=96). The suckers of M. arvensis L. cv. Himalaya for multiplication of the plant material and future experimentation were obtained from CIMAP's gene bank. For callus production, the explant material was collected from the field grown plants and surface sterilized by washing sequentially with 2% detergent, distilled water containing a few drops of Savlon (Johnson and Johnson, India), 0 1% acidified mercuric chloride and autoclaved distilled water before inoculation. About 1 cm long internode pieces were inoculated in the Murashige and Skoog medium (Murashige T, Skoog F; 1962. A revised medium for rapid growth and bioassay with tobacco tissue cultures. Physiol Planta, 15:473-497) supplemented with 0.2 μg ml^−1 of an auxin (NAA, 1-napthalene acetic acid) and 5 μg ml^−1 of a cytokinin (BAP, benzyl aminopurine). […]
# (§2) In the next phase, the callus was sub cultured in three different media: i) the basal medium MSO containing only the vitamins and minerals without any growth hormones; ii) MSA-2 medium which is MSO with 0.2 μg ml^−1 concentration of NAA and 5 μg ml^−1 of a cytokinin BAP; and iii) MT-80 medium which is MSO with only 80 μg ml^−1 menthol. […] The response was recorded every 24 hours over a period of one week and then weekly upto one month. […]
# Internodes = assay: Response of other explants in different media: internodes; type: cell-based, Mentha arvensis; conditions: 7 days
# Method: (§3) In the next phase, the callus was sub cultured in three different media: i) the basal medium MSO containing only the vitamins and minerals without any growth hormones; ii) MSA-2 medium which is MSO with 0.2 μg ml^−1 concentration of NAA and 5 μg ml^−1 of a cytokinin BAP; and iii) MT-80 medium which is MSO with only 80 μg ml^−1 menthol. On each kind of these media, an independent callus (50 mg ) or 5 independently regenerated shoots were inoculated per flask in 5 replications each. The experiment was conducted in the completely randomized design (CRD) fashion. Cultures were incubated and maintained at 25±2° C. and 400-600 lux light intensity with 16-hour photoperiod. The response was recorded every 24 hours over a period of one week and then weekly upto one month.
# (§4) At this stage, the applicants wanted to know whether any other parts of the plant (explants) show similar response as callus and lead to direct regeneration. In the same experimental design we inoculated different parts of the plant in different media and the observations were recorded after 7 and 15 days.
# [2] = tested on: in vitro raised somaclones (shootlets); assay: Earlier screening of in vitro raised somaclones in medium containing toxic concentrations of menthol; type: cell-based, Mentha arvensis; conditions: above 70 μg ml^−1 in the medium
# Method: The applicants earlier developed a protocol for screening high menthol yielding plants by inoculating the in vitro raised somaclones in medium containing toxic concentrations of menthol in the tissue culture medium (Patent pending). In this procedure, screening of 2850 variants yielded 30 clones surviving 70 μg ml^−1 of menthol concentration in the medium out of which only 5 stable clones could be isolated which were of high menthol content type in comparison to the parent variety ‘Himalaya’ (U.S. Pat No. PP 10935). […] At this point, the applicants planned experiments to subject the callus directly to menthol selection instead of the regenerated shoots to save on time, space and labour. The logic was to isolate the tolerant cell lines if any, growing from this callus later.
# regenerated shoots = assay: Characteristics and growth of regenerated shoots (leaf dimensions); type: cell-based, Mentha arvensis; conditions: medium containing 80 μg ml^−1 of menthol
# Method: as §3
# The leaves were also larger in the shoots regenerated on the medium containing 80 μg ml^−1 of menthol (Table 4).
# Root pieces = assay: Response of other explants in different media: root pieces; type: cell-based, Mentha arvensis
# Method: as §3, §4
# Mentha arvensis callus = assay: Shooting response of callus in different media; type: cell-based, Mentha arvensis L. cv. Himalaya
# Text: as §1, §2
compound,measurement,setting,value
CC1CCC(C(C)C)C(O)C1 (stereo not shown) [menthol],Toxic concentration at which the regenerated shoots die,[1],≥ 80 µg/mL
same,Response of internodes,Internodes; MSO + 60 ppm menthol,Green
same,Response of internodes,Internodes; MSO + 70 ppm menthol,Green
same,Response of internodes,Internodes; MSO + 80 ppm menthol,Wilting
same,Effect on shootlets of increasing menthol concentration further,[2],killed all the shootlets
same,Growth of menthol-induced shoots compared to shoots growing on other media,regenerated shoots,more vigorous in growth
same,Response of root pieces,"Root pieces; MSO + 60 ppm menthol, 7 days",No change
same,Response of root pieces,"Root pieces; MSO + 70 ppm menthol, 7 days",No change
same,Response of root pieces,"Root pieces; MSO + 70 ppm menthol, 15 days",Wilting started
same,Response of root pieces,"Root pieces; MSO + 80 ppm menthol, 7 days",Wilting
same,Response of root pieces,"Root pieces; MSO + 80 ppm menthol, 15 days",Wilting
same,Time to visible shoot induction from callus,Mentha arvensis callus; MSO medium containing menthol 80 μg ml^−1,7 to 10 days
same,Response of transferred callus pieces,"Mentha arvensis callus; text of Example 2, up to 21 days",induced shoot regeneration
